Consider one compound from patent publication US10781182B2, “Compounds, process for obtaining the compounds, pharmaceutical composition, use of the compounds and method for treating psychiatric disorders and/or sleep disorders” (ACHÉ LABORATÓRIOS FARMACÊUTICOS S.A., priority 2016, dated 2020).

The nature of data set [1]: Permeability in Caco-2 cells. The class given is in vitro ADME. The note with it: human, Caco-2, pH 6.5, 37° C. The method, then:
Permeability tests were performed using Caco-2 cells, a colorectal epithelial adenocarcinoma cell line. These cells resemble intestinal epithelial cells in some aspects, such as the formation of a polarized monolayer, a well-defined brush border on the apical surface, and intercellular junctions.
The test is performed in both directions [apical to basolateral (A-B) and basolateral to apical (B-A)] through the cell monolayer, allowing an efflux ratio that provides an indicator as to whether a compound undergoes active efflux. Particle detection was performed with HPLC-MS/MS (mass spectrometry) according to the calculation of the peak area of the result. MS/MS was performed by combining two mass detectors in a single instrument.
A-B permeability was performed at pH 6.5/7.4 with incubation time of 0 and 60 minutes at 37° C. and B-A permeability was performed at pH 6.5/7.4 with incubation time of 0 and 40 minutes at 37° C.
For orientation: Caco-2 cells form a polarised layer with tight junctions and transporters.

For data set [2], the system named is rat hepatocytes (Sprague-Dawley males). The experiment in a line: Intrinsic clearance in cryopreserved rat hepatocytes. The data set is classed as in vitro ADME. As for the experimental part: (§1) Cryopreserved hepatocytes from humans, rats (Sprague-Dawley males) and from mice (CD-1 males) were used for incubation at different times (0, 0.5, 1, 1.5, 2 hours) at 37° C. followed by HPLC-MS/MS detection. The aim was to verify the clearance time of the test substance on hepatocytes. The experiment was performed on a 96-well plate and the cryopreserved hepatocytes were thawed and resuspended in Krebs-Heinslet buffer(pH 7.3). The reaction was started by adding each test compound to each cell suspension and performing the incubation at the times indicated above. The reaction was quenched with addition of acetonitrile in the wells and detection by HPLC-MS/MS (mass spectrometry). MS/MS is performed by combining two mass detectors into a single instrument.

For data set [3], the system named is mouse hepatocytes (CD-1 males). The experiment in a line: Intrinsic clearance in cryopreserved mouse hepatocytes. The class given is in vitro ADME. The method, then:
as §1

Data set [4] in a line: Pharmacokinetics (PK) in mouse, I.V. and oral. The class given is in vivo, CD-1 mice. The method, then: PK tests were performed with CD-1 mice, using 4 animals per molecule tested, 2 animals for pharmacokinetic analysis by intravenous (IV) administration and 2 animals for oral administration. The treatment was carried out in a single dose: I.V. group with dose of 1 mg/kg and Oral group with dose of 10 mg/kg. […] Blood collection was performed after euthanasia at 08 defined time points and at 24 hours post-dose. The pharmacokinetic analysis parameters detected for Group IV were: half-life (t½), drug concentration at time zero (C0), last measurable plasma concentration (AUClast), area under the plasma concentration curve extrapolation percentage (AUC % ext), area under the plasma concentration curve extrapolation to infinity (AUCinf), volume of distribution (Vz), steady state volume of distribution (Vss), clearance (CL) and mean residence time (MRT). The parameters evaluated for the Oral group were: bioavailability (F %), maximum concentration reached (Cmax), time to reach maximum plasma concentration (Tmax), last measurable plasma concentration (AUClast), area under the plasma concentration curve extrapolation percentage (AUC % ext), area under the plasma concentration curve extrapolation to infinity (AUCinf), area under the plasma concentration curve extrapolation to infinity versus dose (AUCinf/Dose), half-Life (t½), and mean residence time (MRT).

Data set [5] in a line: Pharmacokinetics (PK) in rat, I.V. and oral. The class given is in vivo, Wistar-Han rats. The method, then:
[…] The study lasted for 2 weeks (including acclimation time and study), in which the route of administration was made by injection into the caudal vein and oral gavage. The treatment was carried out in a single dose: I.V. group with dose of 1 mg/kg and Oral group with dose of 10 mg/kg. […] Clinical observations were made twice a day (morning and afternoon) in the pre-dose at the 08 time points defined in the protocol. Blood collection was performed after euthanasia in the pre-dose animals at 08 defined time points and at 24 hours post-dose. The pharmacokinetic analysis parameters detected for Group IV were: half-life (t½), drug concentration at time zero (C0), last measurable plasma concentration (AUClast), area under the plasma concentration curve extrapolation percentage (AUC % ext), area under the plasma concentration curve extrapolation to infinity (AUCinf), volume of distribution (Vz), steady state volume of distribution (Vss), clearance (CL) and mean residence time (MRT). The parameters evaluated for the Oral group were: bioavailability (F %), maximum concentration reached (Cmax), time to reach maximum plasma concentration (Tmax), last measurable plasma concentration (AUClast), area under the plasma concentration curve extrapolation percentage (AUC % ext), area under the plasma concentration curve extrapolation to infinity (AUCinf), area under the plasma concentration curve extrapolation to infinity versus dose (AUCinf/Dose), half-Life (t½), and mean residence time (MRT).

The target in data set [6] is P450 cytochrome 1A2 (CYP1A2) (Homo sapiens (Human), UniProt P05177). The conditions noted are these: cited from earlier work.
Sequence of P450 cytochrome 1A2 (CYP1A2) (P05177 whole entry): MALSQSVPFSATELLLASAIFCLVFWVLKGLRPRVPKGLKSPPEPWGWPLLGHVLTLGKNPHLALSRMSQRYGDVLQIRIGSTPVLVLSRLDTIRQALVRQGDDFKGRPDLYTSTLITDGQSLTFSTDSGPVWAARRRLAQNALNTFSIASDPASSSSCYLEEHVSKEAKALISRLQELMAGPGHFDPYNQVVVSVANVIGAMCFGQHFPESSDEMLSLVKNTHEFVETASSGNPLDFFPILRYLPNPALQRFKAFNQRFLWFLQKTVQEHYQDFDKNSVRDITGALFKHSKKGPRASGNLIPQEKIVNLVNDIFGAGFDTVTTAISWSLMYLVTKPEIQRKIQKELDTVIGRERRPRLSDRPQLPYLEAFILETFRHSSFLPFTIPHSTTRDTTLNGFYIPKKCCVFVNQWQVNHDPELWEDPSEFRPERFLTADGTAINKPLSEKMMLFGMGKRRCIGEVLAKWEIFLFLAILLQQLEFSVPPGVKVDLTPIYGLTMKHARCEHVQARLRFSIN
Where [7] appears, read: CD-1, plasma, intravenous 1 mg/kg.
The mark [8] stands for this setting: oral 10 mg/kg vs intravenous 1 mg/kg.
The mark [9] stands for this setting: Wistar-Han, plasma, intravenous 1 mg/kg.

SMILES strings stand for the structures. Like-named read-outs stand apart in the source and are kept apart here.

As usually defined, the half-life is the time in which the quantity being followed falls by half. The low end stands for fast loss, the high end for slow loss. The term AUC(0-t) denotes exposure summed from dosing to a finite time, without extrapolation to infinity. As a reminder, the bioavailability is the share of a dose that reaches the circulation, judged against a reference dose that is usually intravenous. By Cmax is commonly meant the peak of the concentration-time curve. As usually defined, the Tmax is the time from dosing to the highest level.

Regarding `COc1ccc2cccc(CCNC(C)=O)c2c1` [IA2-76, agomelatine, reference compound], the Papp A→B at 60 min in data set [1] (apical to basolateral, 60 min, read-out: Permeability A-B (pH 6.5/7.4)) turned out to be 83.9 ×10⁻⁶ cm/s. The Papp B→A at 40 min in data set [1] (basolateral to apical, 40 min, read-out: Permeability B-A (pH 6.5/7.4)) amounted to 48.5 ×10⁻⁶ cm/s. Further, the “Intrinsic clearance half-life, Rat Sprague-Dawley” value in data set [2] was determined as 50 min. The “Intrinsic clearance half-life, Mouse CD-1” value in data set [3] amounted to 25 min. In data set [4] (setting [7]), this compound returned a C0 of 811 ng/mL. The clearance in data set [4] (setting [7]) was 116 mL/min/kg; in data set [5] (setting [9]), 39.1 mL/min/kg. Besides, the half-life is 8.94 min in data set [4] (setting [7]) and 17.7 min in data set [5] (setting [9]). In addition, the AUC(0-t) stood at 30.3 ng·h/mL in data set [4] (CD-1, plasma, oral 10 mg/kg) and 1020 ng·h/mL in data set [5] (Wistar-Han, plasma, oral 10 mg/kg). The bioavailability in data set [4] (CD-1, plasma, oral 10 mg/kg vs intravenous 1 mg/kg, read-out: F (%) bioavailability) came to 2.42%; in data set [5] (Wistar-Han, plasma, oral 10 mg/kg vs intravenous 1 mg/kg, read-out: F (%) bioavailability), 22.6%. The peak concentration (Cmax) in data set [4] (CD-1, plasma, oral 10 mg/kg, read-out: Cmax) stood at 21.9 ng/mL; in data set [4] (oral 10 mg/kg), 21.9 ng/mL. Moreover, the Tmax in data set [4] (CD-1, plasma, oral 10 mg/kg, read-out: Tmax) was determined as 15 min; in data set [4] (oral 10 mg/kg), 15 min. Also, the “F (%) bioavailability” value in data set [4] (setting [8]) is 2.42%; in data set [5] (setting [8]), 22.6%. Moreover, the CL in data set [5] (intravenous 1 mg/kg) was found to be 39.1 mL/min/kg. Also, the T1/2 in data set [5] (intravenous 1 mg/kg) was found to be 17.7 min. Further, the AUClast in data set [5] (oral 10 mg/kg) is 1025 ng·h/mL. Moreover, the “share metabolized in the liver by CYP1A2” value in data set [6] is “Around 90%”.
